{"source": "patent US9931320B2", "about": "“Parasiticidal oral veterinary compositions comprising systemically-acting active agents, methods and uses thereof” (MERIAL INC., priority 2012, dated 2018)", "test_system": "Trichuris vulpis (whipworm)", "assay": "Efficacy against Trichuris vulpis (whipworm) in dogs (Example 14)", "conditions": "after 7 days; treated on Day 0; 0.5 mg/kg milbemycin oxime alone or with 2.5 mg/kg Compound A; naturally infected dogs", "data": [{"substance": "milbemycin oxime", "values": [{"measurement": "Efficacy against T. vulpis (parasite counts)", "result": "> 94", "unit": "%"}]}]}
